In patent US8785457B2 (Cellzome Limited, priority 2009, dated 2014) one finds IC50 data, which are given here for ten compounds.

Where two headings read alike, the source gives them in different places.

Assay [1] concerns the target T1, mTOR (Homo sapiens, UniProt P42345).
T1 construct: endogenous in cells; host or cells: Jurkat, clone E6-1 (ATCC TIB-152) cell lysate
The assay can be described thus: mTOR kinobeads assay (competitive binding in Jurkat cell lysate, immunodetection). To be noted: kinobeads assay. On the procedure:
The compounds of the present invention as described were tested in the mTOR kinobeads assay as described below. […] After the incubation time the beads with captured proteins were separated from the lysate. Bound proteins were then eluted and the presence of mTOR, PI3K delta (PI3 Kd) and DNA-dependent protein kinase (DNA-PK) was detected and quantified using a specific antibody in a dot blot procedure and the Odyssey infrared detection system.
(§1) The kinobeads assay was performed as a competitive binding assay in which test compounds were added directly into a cell lysate. Test compounds (at various concentrations) and the affinity matrix (beads with immobilized phenylmorpholin-chromen ligand) were added to cell lysate aliquots and allowed to bind to the proteins contained in the lysate sample. After the incubation time the beads with captured proteins were separated from the lysate. Bound proteins were then eluted and the presence of kinases was detected and quantified using a multiplexed immunodetection format. Dose response curves for individual kinases were generated and IC50 values calculated.
(§2) 5×DP buffer: 250 mM Tris-HCl pH 7.4, 25% Glycerol, 7.5 mM MgCl2, 750 mM NaCl, 5 mM Na3VO4, filter the 5×-lysis buffer through 0.22 μm filter and store in aliquots at −80° C. The 5×DP buffer is diluted to 1×DP buffer containing 1 mM DTT and 25 mM NaF.
Stock solutions of test compounds were prepared in DMSO. In a 96 well plate 30 μl solution of diluted test compounds at 5 mM in DMSO were prepared. Starting with this solution a 1:3 dilution series (9 steps) was prepared. For control experiments (no test compound) a buffer containing 2% DMSO was used.
Jurkat cells were homogenized in a Potter S homogenizer in lysis buffer: 50 mM Tris-HCl, 0.8% NP40, 5% glycerol, 150 mM NaCl, 1.5 mM MgCl2, 25 mM NaF, 1 mM sodium vanadate, 1 mM DTT, pH 7.5. […] The material was dounced 10 times using a mechanized POTTER S, transferred to 50 ml falcon tubes, incubated for 30 minutes on ice and spun down for 10 min at 20,000 g at 4° C. (10,000 rpm in Sorvall SLA600, precooled). […] (33.500 rpm in Ti50.2, precooled). The supernatant was transferred again to a fresh 50 ml falcon tube, the protein concentration was determined by a Bradford assay (BioRad) and samples containing 50 mg of protein per aliquot were prepared. The samples were immediately used for experiments or frozen in liquid nitrogen and stored frozen at −80° C.
Jurkat cell lysate (approximately 50 mg protein per plate) was thawed in a water bath at room temperature and then kept on ice. […] The diluted cell lysate was stored on ice.
Plates were sealed and incubated for two hours in a cold room on a Thermoxer with shaking (750 rpm). Afterwards the plate was washed twice with 230 μl washing buffer (1×DP 0.4% NP40). […] The eluate was frozen quickly at −80° C. and stored at −20° C.
The kinases in the eluates were detected and quantified by spotting on Nitrocellulose membranes and using a first antibody directed against the kinase of interest and a fluorescently labeled secondary antibody (anti-mouse or anti-rabbit IRDye™ antibodies from Rockland).
Afterwards the membrane was washed three times for 10 minutes with PBS buffer containing 0.1% Tween 20 at room temperature. […] Afterwards the membrane was washed three times for 10 minutes each with 1×PBS buffer containing 0.1% Tween 20 at room temperature. Then the membrane was rinsed once with PBS buffer to remove residual Tween 20. The membrane was kept in PBS buffer at 4° C. and then scanned with the Odyssey instrument. Fluorescence signals were recorded and analysed according to the instructions of the manufacturer.

For assay [2], the target named is T2, PI3K delta (PI3 Kd) (Homo sapiens, UniProt O00329).
T2 construct: endogenous in cells; host or cells: Jurkat, clone E6-1 (ATCC TIB-152) cell lysate
The experiment in a line: kinobeads assay, PI3K delta. It is filed as binding. Conditions: kinobeads assay, read-out: Inhibition values (IC50) PI3Kd. On the procedure:
(§3) The compounds of the present invention as described were tested in the mTOR kinobeads assay as described below. Briefly, test compounds (at various concentrations) and the affinity matrix with the immobilized phenylmorpholin-chromen ligand (8-(4-aminomethyl-phenyl)-2-morpholin-4-yl-chromen-4-one) were added to cell lysate aliquots and allowed to bind to the proteins in the lysate sample. After the incubation time the beads with captured proteins were separated from the lysate. Bound proteins were then eluted and the presence of mTOR, PI3K delta (PI3 Kd) and DNA-dependent protein kinase (DNA-PK) was detected and quantified using a specific antibody in a dot blot procedure and the Odyssey infrared detection system. Kinobeads assays for PI3K (WO-A 2008/015013) and for kinase selectivity profiling (WO 2006/134056) have been previously described.
as §1
(§4) The affinity matrix (beads with immobilized phenylmorpholin-chromen ligand) was washed two times with 15 ml of 1×DP buffer containing 0.2% NP40 (IGEPAL® CA-630, Sigma, #13021) and then resupended in 5.5 ml of 1×DP buffer containing 0.2% NP40 (10% beads slurry).
as §2
(§5) Stock solutions of test compounds were prepared in DMSO. In a 96 well plate 30 μl solution of diluted test compounds at 5 mM in DMSO were prepared. Starting with this solution a 1:3 dilution series (9 steps) was prepared. For control experiments (no test compound) a buffer containing 2% DMSO was used. Compound CZC00018052 served as a positive control (PI-103; Calbiochem catalogue number 528100).
(§6) Jurkat cells (ATCC catalogue number TIB-152 Jurkat, clone E6-1) were grown in 1 liter Spinner flasks (Integra Biosciences, #182101) in suspension in RPMI 1640 medium (Invitrogen, #21875-034) supplemented with 10% Fetal Bovine Serum (Invitrogen) at a density between 0.15×10^6 and 1.2×10^6 cells/ml. Cells were harvested by centrifugation, washed once with 1×PBS buffer (Invitrogen, #14190-094) and cell pellets were frozen in liquid nitrogen and subsequently stored at −80° C.
(§7) Jurkat cells were homogenized in a Potter S homogenizer in lysis buffer: 50 mM Tris-HCl, 0.8% NP40, 5% glycerol, 150 mM NaCl, 1.5 mM MgCl2, 25 mM NaF, 1 mM sodium vanadate, 1 mM DTT, pH 7.5. One complete EDTA-free tablet (protease inhibitor cocktail, Roche Diagnostics, 1873580) per 25 ml buffer was added. The material was dounced 10 times using a mechanized POTTER S, transferred to 50 ml falcon tubes, incubated for 30 minutes on ice and spun down for 10 min at 20,000 g at 4° C. (10,000 rpm in Sorvall SLA600, precooled). The supernatant was transferred to an ultracentrifuge (UZ)-polycarbonate tube (Beckmann, 355654) and spun for 1 hour at 100.000 g at 4° C. (33.500 rpm in Ti50.2, precooled). The supernatant was transferred again to a fresh 50 ml falcon tube, the protein concentration was determined by a Bradford assay (BioRad) and samples containing 50 mg of protein per aliquot were prepared. The samples were immediately used for experiments or frozen in liquid nitrogen and stored frozen at −80° C. […]

In assay [3] the target is T3, DNA-dependent protein kinase (DNA-PK) (Homo sapiens, UniProt P78527).
T3 construct: endogenous in cells; host or cells: Jurkat, clone E6-1 (ATCC TIB-152) cell lysate
T3 sequence (P78527 whole entry): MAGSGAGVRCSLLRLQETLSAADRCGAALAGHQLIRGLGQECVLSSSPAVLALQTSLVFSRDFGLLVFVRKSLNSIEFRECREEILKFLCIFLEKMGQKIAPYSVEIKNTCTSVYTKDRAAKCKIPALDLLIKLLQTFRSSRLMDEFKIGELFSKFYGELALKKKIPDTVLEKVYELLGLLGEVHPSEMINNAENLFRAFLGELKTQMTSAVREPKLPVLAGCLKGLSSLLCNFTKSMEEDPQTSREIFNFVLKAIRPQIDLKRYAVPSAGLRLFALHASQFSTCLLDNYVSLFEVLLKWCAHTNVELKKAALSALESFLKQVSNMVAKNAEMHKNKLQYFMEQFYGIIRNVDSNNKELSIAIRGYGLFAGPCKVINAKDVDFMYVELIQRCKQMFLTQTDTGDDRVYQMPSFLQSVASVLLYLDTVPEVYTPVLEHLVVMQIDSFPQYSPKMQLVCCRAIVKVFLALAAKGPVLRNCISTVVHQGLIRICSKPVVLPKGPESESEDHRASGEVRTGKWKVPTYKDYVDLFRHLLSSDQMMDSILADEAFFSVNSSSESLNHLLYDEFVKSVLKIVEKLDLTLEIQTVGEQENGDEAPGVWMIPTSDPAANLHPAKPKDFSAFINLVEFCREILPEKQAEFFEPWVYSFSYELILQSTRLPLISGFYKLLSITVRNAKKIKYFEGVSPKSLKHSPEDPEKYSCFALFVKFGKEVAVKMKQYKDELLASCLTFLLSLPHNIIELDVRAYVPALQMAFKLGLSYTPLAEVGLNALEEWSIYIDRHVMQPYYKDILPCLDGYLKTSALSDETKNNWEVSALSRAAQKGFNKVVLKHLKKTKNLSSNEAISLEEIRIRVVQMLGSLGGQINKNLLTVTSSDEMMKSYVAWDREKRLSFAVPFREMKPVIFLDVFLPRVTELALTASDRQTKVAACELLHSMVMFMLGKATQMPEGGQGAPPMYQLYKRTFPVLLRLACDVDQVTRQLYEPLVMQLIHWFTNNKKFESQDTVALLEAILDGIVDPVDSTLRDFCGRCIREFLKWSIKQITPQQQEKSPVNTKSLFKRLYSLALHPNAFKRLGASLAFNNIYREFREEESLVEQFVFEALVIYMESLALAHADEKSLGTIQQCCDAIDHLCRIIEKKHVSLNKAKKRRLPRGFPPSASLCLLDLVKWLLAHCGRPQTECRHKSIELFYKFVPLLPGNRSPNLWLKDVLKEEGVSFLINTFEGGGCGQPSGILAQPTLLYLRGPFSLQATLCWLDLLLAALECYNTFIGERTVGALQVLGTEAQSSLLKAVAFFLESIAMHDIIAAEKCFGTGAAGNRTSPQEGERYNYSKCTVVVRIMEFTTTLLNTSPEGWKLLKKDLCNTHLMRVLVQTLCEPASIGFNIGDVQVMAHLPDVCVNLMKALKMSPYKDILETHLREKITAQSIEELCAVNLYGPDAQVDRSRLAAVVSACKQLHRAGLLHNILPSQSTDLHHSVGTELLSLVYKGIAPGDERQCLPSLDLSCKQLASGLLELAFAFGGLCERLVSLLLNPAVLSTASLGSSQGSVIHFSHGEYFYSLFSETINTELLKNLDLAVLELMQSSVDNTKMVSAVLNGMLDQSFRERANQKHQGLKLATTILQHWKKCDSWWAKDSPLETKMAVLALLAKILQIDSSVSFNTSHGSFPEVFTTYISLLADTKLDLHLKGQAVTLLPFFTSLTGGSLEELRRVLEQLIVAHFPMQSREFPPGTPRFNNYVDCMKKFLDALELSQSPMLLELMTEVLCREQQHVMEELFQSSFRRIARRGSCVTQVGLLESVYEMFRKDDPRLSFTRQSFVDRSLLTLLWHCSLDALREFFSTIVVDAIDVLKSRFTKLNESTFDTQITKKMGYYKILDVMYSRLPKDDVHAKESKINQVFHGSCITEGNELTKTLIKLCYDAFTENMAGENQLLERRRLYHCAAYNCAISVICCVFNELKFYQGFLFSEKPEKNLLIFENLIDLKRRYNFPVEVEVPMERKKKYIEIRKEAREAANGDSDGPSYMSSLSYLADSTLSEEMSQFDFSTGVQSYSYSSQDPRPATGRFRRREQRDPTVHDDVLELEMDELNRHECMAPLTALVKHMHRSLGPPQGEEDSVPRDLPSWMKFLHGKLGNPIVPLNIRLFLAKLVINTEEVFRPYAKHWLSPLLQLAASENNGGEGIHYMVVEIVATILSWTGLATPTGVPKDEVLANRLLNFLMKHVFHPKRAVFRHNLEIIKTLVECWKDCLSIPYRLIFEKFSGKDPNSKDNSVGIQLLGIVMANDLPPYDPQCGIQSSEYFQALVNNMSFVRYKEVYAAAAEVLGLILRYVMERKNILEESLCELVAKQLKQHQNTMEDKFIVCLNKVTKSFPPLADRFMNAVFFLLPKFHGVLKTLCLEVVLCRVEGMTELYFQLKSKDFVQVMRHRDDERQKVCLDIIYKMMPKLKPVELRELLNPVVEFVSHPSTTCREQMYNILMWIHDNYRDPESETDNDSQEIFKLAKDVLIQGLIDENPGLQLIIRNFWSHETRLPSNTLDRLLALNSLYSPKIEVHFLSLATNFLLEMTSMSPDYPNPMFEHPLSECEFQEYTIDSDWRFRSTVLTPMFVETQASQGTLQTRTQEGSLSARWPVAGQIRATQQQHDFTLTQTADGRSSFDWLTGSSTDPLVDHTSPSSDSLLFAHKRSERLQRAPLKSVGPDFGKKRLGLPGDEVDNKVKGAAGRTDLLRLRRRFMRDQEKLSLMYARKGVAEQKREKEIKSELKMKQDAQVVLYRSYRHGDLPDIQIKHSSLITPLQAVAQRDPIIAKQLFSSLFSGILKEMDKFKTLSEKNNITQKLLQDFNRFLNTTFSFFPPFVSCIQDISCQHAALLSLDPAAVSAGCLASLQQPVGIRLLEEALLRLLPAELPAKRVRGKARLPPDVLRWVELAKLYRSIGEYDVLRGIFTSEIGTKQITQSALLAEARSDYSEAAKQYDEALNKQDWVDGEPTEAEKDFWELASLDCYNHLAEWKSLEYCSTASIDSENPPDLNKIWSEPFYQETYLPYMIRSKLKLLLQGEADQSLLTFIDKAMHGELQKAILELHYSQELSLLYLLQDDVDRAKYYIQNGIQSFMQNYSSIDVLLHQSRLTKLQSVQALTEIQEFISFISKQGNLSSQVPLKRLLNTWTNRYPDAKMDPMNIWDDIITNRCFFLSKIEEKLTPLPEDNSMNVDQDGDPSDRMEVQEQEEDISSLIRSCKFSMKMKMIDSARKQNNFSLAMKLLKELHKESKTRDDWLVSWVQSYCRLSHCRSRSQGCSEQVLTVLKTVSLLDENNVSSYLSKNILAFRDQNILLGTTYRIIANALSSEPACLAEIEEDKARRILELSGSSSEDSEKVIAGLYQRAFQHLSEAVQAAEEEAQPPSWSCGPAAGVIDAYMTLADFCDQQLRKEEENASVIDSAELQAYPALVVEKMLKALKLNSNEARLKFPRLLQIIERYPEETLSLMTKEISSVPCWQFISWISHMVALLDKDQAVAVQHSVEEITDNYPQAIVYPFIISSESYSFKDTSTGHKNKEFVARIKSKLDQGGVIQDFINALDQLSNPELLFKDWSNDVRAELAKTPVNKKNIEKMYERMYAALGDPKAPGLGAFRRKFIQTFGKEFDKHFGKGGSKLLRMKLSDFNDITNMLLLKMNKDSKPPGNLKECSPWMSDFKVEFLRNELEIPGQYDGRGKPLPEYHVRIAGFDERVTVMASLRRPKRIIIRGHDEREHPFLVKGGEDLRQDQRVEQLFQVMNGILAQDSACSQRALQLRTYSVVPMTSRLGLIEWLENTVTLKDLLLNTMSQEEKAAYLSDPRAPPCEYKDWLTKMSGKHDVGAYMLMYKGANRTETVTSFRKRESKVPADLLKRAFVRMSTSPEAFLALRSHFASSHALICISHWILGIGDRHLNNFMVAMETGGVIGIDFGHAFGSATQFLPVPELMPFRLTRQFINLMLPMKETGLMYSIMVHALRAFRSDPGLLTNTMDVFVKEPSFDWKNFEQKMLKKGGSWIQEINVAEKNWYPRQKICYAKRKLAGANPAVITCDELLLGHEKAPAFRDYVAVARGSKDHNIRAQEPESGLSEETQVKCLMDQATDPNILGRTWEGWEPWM
The experiment in a line: kinobeads assay, DNA-PK. It counts as binding. To be noted: kinobeads assay. On the procedure: as §3, §1, §4, §2, §5, §6, §7

[4] abbreviates: Table 4, read-out: Inhibition values (IC50) mTor.
The mark [5] stands for this setting: Table 6, read-out: Inhibition values (IC50) mTOR.
[6] abbreviates: Table 4, read-out: Inhibition values (IC50) DNA-PK.
The mark [7] stands for this setting: Table 6, read-out: Inhibition values (IC50) DNAPK.

Regarding `C[C@H]1COCCN1c1nc(-c2ccc(NC(=O)NC3CC3)cc2)nc2c1CNC2` [Example 3, (S)-1-cyclopropyl-3-(4-(4-(3-methylmorpholino)-6,7-dihydro-5H-pyrrolo[3,4-d]pyrimidin-2-yl)phenyl)urea], the 50% inhibitory concentration (IC50) (commonly the concentration that gives 50% inhibition) was < 0.1 µM in assay [1] (setting [4]); < 0.1 µM in assay [1] (setting [5]); > 10 µM in assay [2] (Table 4); > 10 µM in assay [2] (Table 6); > 10 µM in assay [3] (setting [6]); > 10 µM in assay [3] (setting [7]).

With `CNC(=O)Nc1ccc(-c2nc3c(c(N4CCOC[C@@H]4C)n2)CNC3)cc1` [Example 4, (S)-1-methyl-3-(4-(4-(3-methylmorpholino)-6,7-dihydro-5H-pyrrolo[3,4-d]pyrimidin-2-yl)phenyl)urea], the IC50 in assay [1] (setting [4]) is < 0.1 µM; in assay [1] (setting [5]) it was < 0.1 µM; in assay [2] (Table 4) it was 1 to 10 µM; in assay [2] (Table 6) it was 1 to 10 µM; in assay [3] (setting [6]), > 10 µM; in assay [3] (setting [7]), > 10 µM.

For the compound `C[C@H]1COCCN1c1nc(-c2ccc(NC(N)=O)cc2)nc2c1CN(C=O)C2` [Example 6, (S)-1-(4-(6-formyl-4-(3-methylmorpholino)-6,7-dihydro-5H-pyrrolo[3,4-d]pyrimidin-2-yl)phenyl)urea], the IC50 is 0.1 to 1 µM in assay [1] (setting [4]); 0.1 to 1 µM in assay [1] (setting [5]); 1 to 10 µM in assay [2] (Table 4); 1 to 10 µM in assay [2] (Table 6); > 10 µM in assay [3] (setting [6]); > 10 µM in assay [3] (setting [7]).

For `CCNC(=O)Nc1ccc(-c2nc3c(c(N4CCOC[C@@H]4C)n2)CNC3)cc1` [Example 7, (S)-1-ethyl-3-(4-(4-(3-methylmorpholino)-6,7-dihydro-5H-pyrrolo[3,4-d]pyrimidin-2-yl)phenyl)urea], the IC50 in assay [1] (setting [4]) is < 0.1 µM; in assay [1] (setting [5]), < 0.1 µM; in assay [2] (Table 4) it was > 10 µM; in assay [2] (Table 6), > 10 µM; in assay [3] (setting [6]), > 10 µM; in assay [3] (setting [7]), > 10 µM.

In the case of `C[C@@H]1COCCN1c1nc(-c2ccc(NC(=O)NC3CC3)cc2)nc2c1CNC2` [Example 9, (R)-1-cyclopropyl-3-(4-(4-(3-methylmorpholino)-6,7-dihydro-5H-pyrrolo[3,4-d]pyrimidin-2-yl)phenyl)urea], the IC50 in assay [1] (setting [4]) is < 0.1 µM; in assay [1] (setting [5]), < 0.1 µM; in assay [2] (Table 4), > 10 µM; in assay [2] (Table 6), > 10 µM; in assay [3] (setting [6]), > 10 µM; in assay [3] (setting [7]) it was > 10 µM.

As for `CNC(=O)Nc1ccc(-c2nc3c(c(N4CCOC[C@@H]4C)n2)CNCC3)cc1` [Example 10, (S)-1-methyl-3-(4-(4-(3-methylmorpholino)-5,6,7,8-tetrahydropyrido[4,3-d]pyrimidin-2-yl)phenyl)urea], the IC50 in assay [1] (setting [4]) was 0.1 to 1 µM; in assay [1] (setting [5]), 0.1 to 1 µM; in assay [2] (Table 4) it was > 10 µM; in assay [2] (Table 6), > 10 µM; in assay [3] (setting [6]) it was > 10 µM; in assay [3] (setting [7]), > 10 µM.

As to `CCNC(=O)Nc1ccc(-c2nc3c(c(N4CCOCC4)n2)CNC3)cc1` [Example 14, 1-ethyl-3-(4-(4-morpholino-6,7-dihydro-5H-pyrrolo[3,4-d]pyrimidin-2-yl)phenyl)urea], the IC50 is 1 to 10 µM in assay [2] (Table 4), 1 to 10 µM in assay [2] (Table 6), > 10 µM in assay [3] (setting [6]) and > 10 µM in assay [3] (setting [7]).

Consider `CCNC(=O)Nc1ccc(-c2nc3c(c(N4CCOC[C@@H]4C)n2)CCN(Cc2ccc(F)cc2)C3)cc1` [Example 31, (S)-1-ethyl-3-(4-(7-(4-fluorobenzyl)-4-(3-methylmorpholino)-5,6,7,8-tetrahydropyrido[3,4-d]pyrimidin-2-yl)phenyl)urea], for which the 50% inhibitory concentration (IC50) in assay [1] (setting [4]) was 0.1 to 1 µM; in assay [1] (setting [5]), 1 to 10 µM; in assay [2] (Table 4), > 10 µM; in assay [2] (Table 6) it was > 10 µM; in assay [3] (setting [6]), > 10 µM; in assay [3] (setting [7]) it was > 10 µM.

As for `C[C@H]1COCCN1c1nc(-c2ccc(NC(=O)NCCCO)cc2)nc2c1CN(C)C2` [Example 51, (S)-1-(3-hydroxypropyl)-3-(4-(6-methyl-4-(3-methylmorpholino)-6,7-dihydro-5H-pyrrolo[3,4-d]pyrimidin-2-yl)phenyl)urea], the IC50 is < 0.1 µM in assay [1] (setting [4]), < 0.1 µM in assay [1] (setting [5]), > 10 µM in assay [3] (setting [6]) and > 10 µM in assay [3] (setting [7]).

Take `COCCCNC(=O)Nc1ccc(-c2nc3c(c(N4CCOC[C@@H]4C)n2)CN(C)C3)cc1` [Example 53, (S)-1-(3-methoxypropyl)-3-(4-(6-methyl-4-(3-methylmorpholino)-6,7-dihydro-5H-pyrrolo[3,4-d]pyrimidin-2-yl)phenyl)urea]: the half-inhibitory concentration (IC50) in assay [1] (setting [4]) is 0.1 to 1 µM; in assay [1] (setting [5]) it was 0.1 to 1 µM; in assay [3] (setting [6]), > 10 µM; in assay [3] (setting [7]), > 10 µM.
